Data: the CheMixHub viscosity set

Experiment: xn = mol fraction of the nth substance listed

c1ccncc1 + Cc1cccc(C)c1
viscosity [mPa·s], 101 kPa
Conditions	x2 = 0.1993	x2 = 0.2997	x2 = 0.3994	x2 = 0.524	x2 = 0.5987	x2 = 0.7003	x2 = 0.7968	x2 = 0.8972
293.15 K	0.8031	0.7468	0.7151	0.6612	0.6415	0.6114	0.59	0.5649
303.15 K	0.7062	0.6592	0.6241	0.5859	0.5687	0.547	0.5279	0.5097
313.15 K	0.6189	0.5815	0.5504	0.5173	0.5023	0.4843	0.4668	0.4544
323.15 K	0.5442	0.5118	0.4851	0.4563	0.4433	0.428	0.4122	0.4019

c1ccncc1 + CO
298 K, 101.3 kPa
Conditions	viscosity [mPa·s]
x2 = 0.1249	0.85
x2 = 0.2338	0.82
x2 = 0.4192	0.763
x2 = 0.5695	0.714
x2 = 0.694	0.67
x2 = 0.7987	0.631
x2 = 0.8881	0.596
x2 = 0.9652	0.565

CN(C)CCN(C)C + O
viscosity [mPa·s], 100 kPa
Conditions	293.15 K	303.15 K	313.15 K	323.15 K
x1 = 0.001	1.041	0.83	0.679	0.564
x1 = 0.01	1.375	1.143	0.941	0.732
x1 = 0.025	2.406	1.734	1.303	1.012
x1 = 0.05	5.033	3.269	2.032	1.409
x1 = 0.075	8.363	4.972	2.688	1.769
x1 = 0.1	11.53	6.033	3.292	2.114
x1 = 0.2	12.82	7.744	4.885	3.185
x1 = 0.3	7.906	5.945	4.23	3.011
x1 = 0.399	3.497	2.56	1.9	1.45
x1 = 0.5	1.887	1.456	1.117	0.904
x1 = 0.601	1.344	1.064	0.853	0.69
x1 = 0.7	1.066	0.881	0.724	0.585
x1 = 0.8	0.859	0.733	0.625	0.52
x1 = 0.9	0.715	0.63	0.554	0.473

CCCCCCCCCC(=O)O + CCCCCCCCCCCCCCCC
100 kPa, x2 = 0.6321
Conditions	viscosity [mPa·s]
298.2 K	4.1
308.2 K	3.09
318.2 K	2.41

CCOC(=O)C(Br)CC (centres undefined) + CCCCCC
303.15 K, 101 kPa
Conditions	viscosity [mPa·s]
x1 = 0.1972	0.3726
x1 = 0.3889	0.5074
x1 = 0.4924	0.6029
x1 = 0.5981	0.7246
x1 = 0.7949	1.032

CC(O)CCO (centres undefined) + O
viscosity [mPa·s]
Conditions	298.15 K	303.15 K	308.15 K	313.15 K	318.15 K
101 kPa, x1 = 0.0996	3.694	3.073	2.633	2.297	2.019
101 kPa, x1 = 0.1982	8.539	6.787	5.587	4.737	4.034
101 kPa, x1 = 0.2991	15.27	11.94	9.627	8.017	6.671
101 kPa, x1 = 0.4036	23.16	18.3	14.52	11.63	9.592
101 kPa, x1 = 0.4489	28.48	23.28	17.57	13.92	11.4
101 kPa, x1 = 0.6118	47.9	35.02	27.68	21.38	17.22
101 kPa, x1 = 0.6989	56.8	42.27	33.27	25.42	20.24
101 kPa, x1 = 0.7986	67.85	51.92	38.78	29.8	23.4
101 kPa, x1 = 0.8971	82.56	62.2	46.95	35.92	27.87
101.3 kPa, x2 = 0.045	–	–	–	–	28.95
101.3 kPa, x2 = 0.2499	–	–	–	–	20.85

NCCNCCNCCN + O
viscosity [mPa·s]
Conditions	303.15 K	313.15 K	323.15 K
100 kPa, x1 = 0.006	–	0.78	–
100 kPa, x1 = 0.014	–	0.98	–
100 kPa, x1 = 0.03	–	1.69	–
100 kPa, x1 = 0.076	–	6.61	–
101 kPa, x1 = 0.0299	2.243	1.716	1.359
101 kPa, x1 = 0.0502	5.399	3.454	2.481
101 kPa, x1 = 0.0759	11.81	7.786	5.213
101 kPa, x1 = 0.1097	22.1	13.05	8.624
101 kPa, x1 = 0.156	38.42	22.22	14.34
101 kPa, x1 = 0.2233	60.39	32.27	20.32
101 kPa, x1 = 0.3302	82.48	42.63	26.01
101 kPa, x1 = 0.5259	75.67	38.19	21.84
101 kPa, x1 = 0.7007	50.89	27.24	15.21
101 kPa, x1 = 0.7994	39.76	21.64	12.67
101 kPa, x1 = 0.9242	31.35	16.13	10.61

c1ccncc1 + Cc1ccc(C)cc1
viscosity [mPa·s], 101 kPa
Conditions	x2 = 0.0992	x2 = 0.1993	x2 = 0.2987	x2 = 0.3993	x2 = 0.4949	x2 = 0.6001	x2 = 0.6997	x2 = 0.7994	x2 = 0.8981
293.15 K	0.8699	0.8193	0.7862	0.7311	0.6964	0.6582	0.6345	0.6152	0.5919
303.15 K	0.7603	0.7165	0.6902	0.6422	0.6139	0.5868	0.5656	0.5475	0.5316
313.15 K	0.6704	0.6302	0.6051	0.565	0.5399	0.5172	0.4986	0.4819	0.4686
323.15 K	0.5894	0.5534	0.5296	0.496	0.4742	0.4548	0.4385	0.4238	0.4123
